The subject of one experiment is Str. pyogenes A9604. The experiment in a line: Antibiotic spectrum in nutrient broth, MIC. The experiment is classed as cell-based. The note with it: Streptococcus pyogenes, 10^-3 dilution of overnight culture, 45% AAB + 5% serum + 50% broth, BL-S1052 adjusted for 97.5% content of BL-S640. From the text: (§1) Antibiotic Spectrum in Nutrient Broth
(§2) *45% AAB + 5% serum + 50% broth listed above.
(§3) **Dilution of overnight broth culture.
(§4) ^(1) Adjusted for 97.5% content of BL-S640. In other words, the
(§5) numerical values are lowered, i.e. improved. This adjustment was also mad
(§6) in the tests reported below or in the alternative, a larger weight was
(§7) used to provide equivalent dosage.

The test system of another experiment is S. pneumoniae A9585. The experiment in a line: Antibiotic spectrum in nutrient broth, MIC. The experiment is classed as cell-based. The conditions noted are these: Streptococcus pneumoniae, 10^-3 dilution of overnight culture, 45% AAB + 5% serum + 50% broth, BL-S1052 adjusted for 97.5% content of BL-S640.
Description: as §1, §2, §3, §4, §5, §6, §7

A short description of the next experiment: Bio-assay (mcg./mg.). The protocol:
7-[D-α-amino-α-(p-hydroxyphenyl)acetamido]-3-(1,2,3-triazol-5-ylthiomethyl)-3-cephem-4-carboxylic acid methanol solvate (15 g.) was slurried in 60 ml. of water. The pH was raised to 6.5 by addition of 4N NaOH and the mixture was passed through a 200 mesh screen. The reaction mixture was slurried at room temperature for 2 hours, the pH being maintained at 6.5 during this period. The crystals were removed by filtration, washed with 20 ml. of water and air dried at 37° C. for 24 hours to give 11.5 g. of title crystalline product. Bio assay = 924 mcg./mg. (average % H2 O, K.F. = 5.26).
7-[D-α-amino-α-(p-hydroxyphenyl)acetamido]-3-(1,2,3-triazol-5-ylthiomethyl)-3-cephem-4-carboxylic acid methanol solvate (200 mesh; 10.0 g.) substantially free of propylene glycol is slurried in 30-40 ml. of deionized water at ambient room temperature (20°-25° C.) to give a pH 3-4 aqueous suspension. NaOH (40%) is slowly added with rapid stirring to bring the pH to 6.3-6.7. The mixture is slurried at pH 6.3-6.7 for 2 hours. The crystals are removed by filtration, washed with water and air dried at room temperature for 24 hours to give a 75-80% weight yield of 950-1000 mcg./mg. crystals of 7-[D-α-amino-α-(p-hydroxyphenyl)acetamido]-3-(1,2,3-triazol-5-ylthiomethyl)-3-cephem-4-carboxylic acid dihydrate. […] H2 O, K.F. = 6.56.

The structures appear in SMILES notation.

Consider `O=C(O)C1=C(CSc2c[nH]nn2)CSC2C(N3C(=O)C(c4ccc(O)cc4)NC3c3ccco3)C(=O)N12` (stereo not drawn) [BL-S1052], for which the MIC was found to be 0.03 µg/mL with Str. pyogenes A9604 and 0.06 µg/mL in the experiment with S. pneumoniae A9585. The molecule further yielded a Bio-assay in the experiment “Bio-assay (mcg./mg.)” of 775 to 800 µg/mg.

Source of the values: US4061862A, “Derivatives of 7-(cyclized)phenylglycyl-3-triazolo-thio methyl cephalosporin” (priority 1976, dated 1977).
